Laboratory results taken from ChEMBL document CHEMBL1649246, “Complete nucleotide sequences of plasmids pEK204, pEK499, and pEK516, encoding CTX-M enzymes in three major Escherichia coli lineages from the United Kingdom, all belonging to the international O25:H4-ST131 clone” (2009).
In brackets after ≈: the same amount, converted by molar mass.

Experiments:
Assay type in all cases: functional
[1] = system: Escherichia coli; test: Antimicrobial activity against Escherichia coli J53
[2] = system: Escherichia coli; test: Antimicrobial activity against Escherichia coli DH5[alpha]
[3] = system: Escherichia coli; test: Antimicrobial activity against Escherichia coli J53 harboring pEK499 plasmid encoding CTX-M extended-spectrum beta-lactamases
[4] = system: Escherichia coli; test: Antimicrobial activity against Escherichia coli DH5[alpha] harboring pEK516 plasmid encoding CTX-M extended-spectrum beta-lactamases
[5] = system: Escherichia coli; test: Antimicrobial activity against Escherichia coli DH5[alpha] in presence of beta-lactamase inhibitor clavulanic acid
[6] = system: Escherichia coli; test: Antimicrobial activity against Escherichia coli DH5[alpha] harboring pEK516 plasmid encoding CTX-M extended-spectrum beta-lactamases in presence of beta-lactamase inhibitor clavulanic acid
[7] = system: Escherichia coli; test: Antimicrobial activity against Escherichia coli J53 harboring pEK204 plasmid encoding CTX-M extended-spectrum beta-lactamases in presence of beta-lactamase inhibitor clavulanic acid
[8] = system: Escherichia coli; test: Antimicrobial activity against Escherichia coli J53 harboring pEK499 plasmid encoding CTX-M extended-spectrum beta-lactamases in presence of beta-lactamase inhibitor clavulanic acid
[9] = system: Escherichia coli; test: Antimicrobial activity against Escherichia coli J53 in presence of beta-lactamase inhibitor clavulanic acid
[10] = system: Escherichia coli; test: Antimicrobial activity against Escherichia coli J53 harboring pEK204 plasmid encoding CTX-M extended-spectrum beta-lactamases
[11] = system: Escherichia coli; test: Antimicrobial activity against Escherichia coli DH5[alpha] harboring pEK516 plasmid encoding CTX-M extended-spectrum beta-lactamases in presence of beta-lactamase inhibitor Tazobactam
[12] = system: Escherichia coli; test: Antimicrobial activity against Escherichia coli J53 in presence of beta-lactamase inhibitor Tazobactam
[13] = system: Escherichia coli; test: Antimicrobial activity against Escherichia coli J53 harboring pEK499 plasmid encoding CTX-M extended-spectrum beta-lactamases in presence of beta-lactamase inhibitor Tazobactam
[14] = system: Escherichia coli; test: Antimicrobial activity against Escherichia coli DH5[alpha] in presence of beta-lactamase inhibitor Tazobactam
[15] = system: Escherichia coli; test: Antimicrobial activity against Escherichia coli J53 harboring pEK204 plasmid encoding CTX-M extended-spectrum beta-lactamases in presence of beta-lactamase inhibitor Tazobactam

Compound	MIC [1] [µg/mL]	MIC [2] [µg/mL]	MIC [3] [µg/mL]	MIC [4] [µg/mL]	MIC [10] [µg/mL]	further results
C[C@@H](O)[C@H]1C(=O)N2C(C(=O)O)=C(S[C@@H]3CN[C@H](C(=O)Nc4cccc(C(=O)O)c4)C3)[C@H](C)[C@H]12	≤ 0.125	≤ 0.125				
NCC[C@H](O)C(=O)N[C@@H]1C[C@H](N)[C@@H](O[C@H]2O[C@H](CN)[C@@H](O)[C@H](O)[C@H]2O)[C@H](O)[C@H]1O[C@H]1O[C@H](CO)[C@@H](O)[C@H](N)[C@H]1O [AMIKACIN]	≤ 0.5	1 (≈ 1.71 µM)	4 (≈ 6.83 µM)	2 (≈ 3.42 µM)		
CC1(C)S[C@@H]2[C@H](NC(=O)[C@H](N)c3ccc(O)cc3)C(=O)N2[C@H]1C(=O)O [AMOXICILLIN]						MIC [5]: 8 µg/mL; MIC [6]: 16 µg/mL; MIC [7]: 16 µg/mL; MIC [8]: 32 µg/mL; MIC [9]: 8 µg/mL
CC1(C)S[C@@H]2[C@H](NC(=O)[C@H](N)c3ccccc3)C(=O)N2[C@H]1C(=O)O [AMPICILLIN]	8 (≈ 22.9 µM)	16 (≈ 45.8 µM)	> 64	> 64	> 64	
C[C@H]1[C@H](NC(=O)/C(=N\OC(C)(C)C(=O)O)c2csc(N)n2)C(=O)N1S(=O)(=O)O [AZTREONAM]		0.25 (≈ 0.574 µM)	> 64	32 (≈ 73.5 µM)	8 (≈ 18.4 µM)	
CO/N=C(\C(=O)N[C@@H]1C(=O)N2C(C(=O)O)=C(COC(C)=O)CS[C@H]12)c1csc(N)n1 [CEFOTAXIME]	≤ 0.125	0.25 (≈ 0.549 µM)	256 (≈ 562 µM)	128 (≈ 281 µM)	64 (≈ 141 µM)	MIC [5]: ≤ 0.06 µg/mL; MIC [7]: 0.125 µg/mL; MIC [8]: 0.125 µg/mL; MIC [9]: ≤ 0.06 µg/mL
CO[C@@]1(NC(=O)Cc2cccs2)C(=O)N2C(C(=O)O)=C(COC(N)=O)CS[C@@H]21 [CEFOXITIN]	8 (≈ 18.7 µM)	8 (≈ 18.7 µM)	8 (≈ 18.7 µM)	8 (≈ 18.7 µM)	8 (≈ 18.7 µM)	
CO/N=C(\C(=O)N[C@@H]1C(=O)N2C(C(=O)[O-])=C(C[n+]3cccc4c3CCC4)CS[C@H]12)c1csc(N)n1 [CEFPIROME]	≤ 0.125	≤ 0.125	> 64	64 (≈ 124 µM)	16 (≈ 31.1 µM)	MIC [5]: ≤ 0.06 µg/mL; MIC [9]: ≤ 0.06 µg/mL
CC(C)(O/N=C(\C(=O)N[C@@H]1C(=O)N2C(C(=O)[O-])=C(C[n+]3ccccc3)CS[C@H]12)c1csc(N)n1)C(=O)O [CEFTAZIDIME]	0.25 (≈ 0.457 µM)	0.25 (≈ 0.457 µM)	64 (≈ 117 µM)	16 (≈ 29.3 µM)	2 (≈ 3.66 µM)	MIC [5]: 0.25 µg/mL; MIC [6]: 0.25 µg/mL; MIC [7]: 0.25 µg/mL; MIC [8]: 0.5 µg/mL; MIC [9]: 0.25 µg/mL
O=C(N[C@H](CO)[C@H](O)c1ccc([N+](=O)[O-])cc1)C(Cl)Cl [CHLORAMPHENICOL]	2 (≈ 6.19 µM)	2 (≈ 6.19 µM)	2 (≈ 6.19 µM)	2 (≈ 6.19 µM)	2 (≈ 6.19 µM)	
O=C(O)c1cn(C2CC2)c2cc(N3CCNCC3)c(F)cc2c1=O [CIPROFLOXACIN]	≤ 0.125	≤ 0.125				
C[C@@H](O)[C@H]1C(=O)N2C(C(=O)O)=C(SCCNC=N)C[C@H]12 [IMIPENEM ANHYDROUS]	0.25 (≈ 0.835 µM)	0.5 (≈ 1.67 µM)				
C[C@@H](O)[C@H]1C(=O)N2C(C(=O)O)=C(S[C@@H]3CN[C@H](C(=O)N(C)C)C3)[C@H](C)[C@H]12 [MEROPENEM]	≤ 0.06	≤ 0.06				
CN(C)c1ccc(O)c2c1C[C@H]1C[C@H]3[C@H](N(C)C)C(O)=C(C(N)=O)C(=O)[C@@]3(O)C(O)=C1C2=O [MINOCYCLINE]	0.25 (≈ 0.546 µM)	0.25 (≈ 0.546 µM)	2 (≈ 4.37 µM)	4 (≈ 8.74 µM)	0.25 (≈ 0.546 µM)	
CCN1CCN(C(=O)N[C@@H](C(=O)N[C@@H]2C(=O)N3[C@@H]2SC(C)(C)[C@@H]3C(=O)O)c2ccccc2)C(=O)C1=O [PIPERACILLIN]	4 (≈ 7.73 µM)	4 (≈ 7.73 µM)	> 64	64 (≈ 124 µM)	> 64	MIC [11]: 4 µg/mL; MIC [12]: 4 µg/mL; MIC [13]: 16 µg/mL; MIC [14]: 4 µg/mL; MIC [15]: 4 µg/mL
CN[C@@H]1[C@H](O[C@H]2[C@H](O[C@H]3[C@H](O)[C@@H](O)[C@H](N=C(N)N)[C@@H](O)[C@@H]3N=C(N)N)O[C@@H](C)[C@]2(O)C=O)O[C@@H](CO)[C@H](O)[C@H]1O [STREPTOMYCIN]	1 (≈ 1.72 µM)	1 (≈ 1.72 µM)	32 (≈ 55 µM)	0.5 (≈ 0.86 µM)	2 (≈ 3.44 µM)	
Cc1cc(NS(=O)(=O)c2ccc(N)cc2)no1 [SULFAMETHOXAZOLE]	16 (≈ 63.2 µM)	2 (≈ 7.9 µM)	> 1020	2 (≈ 7.9 µM)	16 (≈ 63.2 µM)	
CN(C)[C@@H]1C(O)=C(C(N)=O)C(=O)[C@@]2(O)C(O)=C3C(=O)c4c(O)cccc4[C@@](C)(O)[C@H]3C[C@@H]12 [TETRACYCLINE]	1 (≈ 2.25 µM)	1 (≈ 2.25 µM)	32 (≈ 72 µM)	32 (≈ 72 µM)	1 (≈ 2.25 µM)	
CN(C)c1cc(NC(=O)CNC(C)(C)C)c(O)c2c1C[C@H]1C[C@H]3[C@H](N(C)C)C(O)=C(C(N)=O)C(=O)[C@@]3(O)C(O)=C1C2=O [TIGECYCLINE]	≤ 0.25	≤ 0.25				
NC[C@H]1O[C@H](O[C@H]2[C@H](O)[C@@H](O[C@H]3O[C@H](CO)[C@@H](O)[C@H](N)[C@H]3O)[C@H](N)C[C@@H]2N)[C@H](N)C[C@@H]1O [TOBRAMYCIN]	0.25 (≈ 0.535 µM)	0.5 (≈ 1.07 µM)	8 (≈ 17.1 µM)	8 (≈ 17.1 µM)	0.5 (≈ 1.07 µM)	
COc1cc(Cc2cnc(N)nc2N)cc(OC)c1OC [TRIMETHOPRIM]	0.06 (≈ 0.207 µM)	0.06 (≈ 0.207 µM)	> 32	0.03 (≈ 0.103 µM)	0.06 (≈ 0.207 µM)	
COLISTIN	< 0.5	< 0.5	< 0.5	< 0.5	< 0.5	
GENTAMICIN	0.25		0.25	8	0.25	
